How the values were obtained:
HL-60(TB) = assay: NCI 60 cell panel SRB screen; assay type: cell-based; conditions: Homo sapiens; for GI50 / IC (TGI) / CC50: 5 log dose; for CC50: 48 h, read-out: LC50 (the source's name); for activity at 10 µM: single dose 10 μM, read-out: percent cell growth promotion
K-562 = assay: NCI 60 cell panel SRB screen; assay type: cell-based; conditions: Homo sapiens, K562; for GI50 / IC (TGI) / CC50: K-562, 5 log dose; for CC50: 48 h, read-out: LC50 (the source's name); for activity at 10 µM: K-562, single dose 10 μM, read-out: percent cell growth promotion
MOLT-4 = assay: NCI 60 cell panel SRB screen; assay type: cell-based; conditions: Homo sapiens; for GI50 / IC (TGI) / CC50: MOLT-4, 5 log dose; for CC50: 48 h, read-out: LC50 (the source's name); for activity at 10 µM: MOLT-4, single dose 10 μM, read-out: percent cell growth promotion
NCI-H522 = assay: NCI 60 cell panel SRB screen; assay type: cell-based; conditions: Homo sapiens; for GI50 / IC (TGI) / CC50: NCI-H522, 5 log dose; for CC50: 48 h, read-out: LC50 (the source's name); for activity at 10 µM: NCI-H522, single dose 10 μM, read-out: percent cell growth promotion
HT29 = assay: NCI 60 cell panel SRB screen; assay type: cell-based; conditions: Homo sapiens, HT-29; for GI50 / IC (TGI) / CC50: HT29, 5 log dose; for CC50: 48 h, read-out: LC50 (the source's name); for activity at 10 µM: HT29, single dose 10 μM, read-out: percent cell growth promotion
MDA-MB-435 = assay: NCI 60 cell panel SRB screen; assay type: cell-based; conditions: Homo sapiens; for GI50: MDA-MB-435; for IC (TGI): MDA-MB-435, read-out: TGI; for activity at 10 µM: MDA-MB-435, read-out: percent cell growth promotion; for CC50: MDA-MB-435, 5 log dose, 48 h, read-out: LC50 (the source's name)
UACC-257 = assay: NCI 60 cell panel SRB screen; assay type: cell-based; conditions: Homo sapiens; for GI50: UACC-257; for IC (TGI): UACC-257, read-out: TGI; for activity at 10 µM: UACC-257, read-out: percent cell growth promotion
IGROV1 = assay: NCI 60 cell panel SRB screen; assay type: cell-based; conditions: Homo sapiens, IGROV-1; for GI50 / IC (TGI) / CC50: IGROV1, 5 log dose; for CC50: 48 h, read-out: LC50 (the source's name); for activity at 10 µM: IGROV1, single dose 10 μM, read-out: percent cell growth promotion
OVCAR-3 = assay: NCI 60 cell panel SRB screen; assay type: cell-based; conditions: Homo sapiens; for GI50 / IC (TGI) / CC50: OVCAR-3, 5 log dose; for CC50: 48 h, read-out: LC50 (the source's name); for activity at 10 µM: OVCAR-3, single dose 10 μM, read-out: percent cell growth promotion
CAKI-1 = assay: NCI 60 cell panel SRB screen; assay type: cell-based, human; conditions: for activity at 10 µM: CAKI-1, single dose 10 μM, read-out: percent cell growth promotion
DU-145 = assay: NCI 60 cell panel SRB screen; assay type: cell-based; conditions: Homo sapiens; for GI50 / IC (TGI) / CC50: DU-145, 5 log dose; for CC50: 48 h, read-out: LC50 (the source's name); for activity at 10 µM: DU-145, single dose 10 μM, read-out: percent cell growth promotion
MCF7 = assay: NCI 60 cell panel SRB screen; assay type: cell-based; conditions: Homo sapiens; for GI50: MCF7; for IC (TGI): MCF7, read-out: TGI; for activity at 10 µM: MCF7, read-out: percent cell growth promotion; for CC50: MCF7, 5 log dose, 48 h, read-out: LC50 (the source's name)
MDA-MB 231/ATCC = assay: NCI 60 cell panel SRB screen; assay type: cell-based; conditions: Homo sapiens; for GI50 / CC50: MDA-MB-231; for IC (TGI): MDA-MB-231, read-out: TGI; for activity at 10 µM: MDA-MB-231, read-out: percent cell growth promotion; for CC50: MDA-MDA 231/ATCC, 5 log dose, 48 h, read-out: LC50 (the source's name)
BT-549 = assay: NCI 60 cell panel SRB screen; assay type: cell-based; conditions: Homo sapiens; for GI50: BT-549; for IC (TGI): BT-549, read-out: TGI; for activity at 10 µM: BT-549, read-out: percent cell growth promotion; for CC50: BT-549, 5 log dose, 48 h, read-out: LC50 (the source's name)
T-47D = assay: NCI 60 cell panel SRB screen; assay type: cell-based; conditions: Homo sapiens, T47D; for IC (TGI): read-out: TGI; for activity at 10 µM: read-out: percent cell growth promotion; for CC50: T-47D, 5 log dose, 48 h, read-out: LC50 (the source's name)
VEGFR-2 tyrosine kinase = biological target: T1, VEGFR-2 tyrosine kinase (Homo sapiens, UniProt P35968); assay: In vitro VEGFR-2 tyrosine kinase assay (BPS Bioscience); assay type: biochemical; conditions: read-out: VEGFR-2 % inhibition; 10 μM concentration
T1 construct: purchased BPS Bioscience 40301
T1 sequence (P35968 20-1356): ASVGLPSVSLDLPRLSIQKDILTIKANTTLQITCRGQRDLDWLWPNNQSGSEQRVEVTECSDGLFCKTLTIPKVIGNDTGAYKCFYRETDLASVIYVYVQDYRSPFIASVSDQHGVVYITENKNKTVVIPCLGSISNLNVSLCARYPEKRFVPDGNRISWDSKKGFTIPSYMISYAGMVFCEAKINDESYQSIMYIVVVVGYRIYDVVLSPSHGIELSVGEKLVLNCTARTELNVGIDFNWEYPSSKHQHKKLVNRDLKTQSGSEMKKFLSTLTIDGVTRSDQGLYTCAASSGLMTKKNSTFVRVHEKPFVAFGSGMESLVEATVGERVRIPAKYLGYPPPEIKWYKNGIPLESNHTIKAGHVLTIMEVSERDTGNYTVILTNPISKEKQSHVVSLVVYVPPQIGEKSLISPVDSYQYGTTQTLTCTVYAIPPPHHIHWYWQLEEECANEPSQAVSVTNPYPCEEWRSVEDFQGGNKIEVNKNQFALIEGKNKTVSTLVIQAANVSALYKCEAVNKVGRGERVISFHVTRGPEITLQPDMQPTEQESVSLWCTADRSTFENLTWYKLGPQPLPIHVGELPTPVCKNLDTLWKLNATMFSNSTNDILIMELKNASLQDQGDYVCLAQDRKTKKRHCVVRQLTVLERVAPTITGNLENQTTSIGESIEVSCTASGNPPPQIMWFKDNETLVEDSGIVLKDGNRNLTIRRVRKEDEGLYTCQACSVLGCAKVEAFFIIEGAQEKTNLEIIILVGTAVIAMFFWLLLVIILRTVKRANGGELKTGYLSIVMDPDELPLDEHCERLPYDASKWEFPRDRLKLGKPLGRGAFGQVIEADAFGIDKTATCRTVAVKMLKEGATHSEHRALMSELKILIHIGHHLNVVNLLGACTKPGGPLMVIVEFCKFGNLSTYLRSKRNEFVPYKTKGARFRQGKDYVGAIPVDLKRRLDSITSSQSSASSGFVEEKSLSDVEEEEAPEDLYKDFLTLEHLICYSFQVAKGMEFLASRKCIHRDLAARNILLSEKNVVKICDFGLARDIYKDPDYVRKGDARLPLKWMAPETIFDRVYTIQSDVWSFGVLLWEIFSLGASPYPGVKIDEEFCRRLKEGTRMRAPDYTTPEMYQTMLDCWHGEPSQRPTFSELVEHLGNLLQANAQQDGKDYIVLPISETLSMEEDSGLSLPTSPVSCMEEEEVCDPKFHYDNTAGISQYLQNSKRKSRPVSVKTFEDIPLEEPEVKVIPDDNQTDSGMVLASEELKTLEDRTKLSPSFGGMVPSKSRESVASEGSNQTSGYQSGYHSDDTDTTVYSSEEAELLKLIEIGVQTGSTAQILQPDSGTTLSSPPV
Procedure, shortened: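 Single-point screen at 10 µM: recombinant VEGFR with poly(Glu,Tyr) 0.2 mg/ml, 10 μM ATP, Tris pH 7.4, MgCl2, BSA, 1% DMSO, 40 min at 30 °C; residual ATP read by Kinase-Glo Plus luminescence.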

## COc1cccc(NCc2nnc(Nc3ccc(Cl)cc3)c3ccccc23)c1 [Compound 16d, N-(4-Chlorophenyl)-4-((3-methoxyphenylamino)methyl)phthalazin-1-amine]
HL-60(TB)
  GI50: 3.78 µM
  IC (TGI): 13.1 µM
  CC50: > 25 µM
  activity at 10 µM: -27.1%
K-562
  GI50: 1.49 µM
  IC (TGI): 13.1 µM
  CC50: > 25 µM
  activity at 10 µM: 2.2%
MOLT-4
  GI50: 1.1 µM
  IC (TGI): 7.57 µM
  CC50: > 25 µM
  activity at 10 µM: -27.2%
NCI-H522
  GI50: 0.32 µM
  IC (TGI): 3.31 µM
  CC50: 13.1 µM
  activity at 10 µM: -43.8%
HT29
  GI50: 0.34 µM
  IC (TGI): 3.62 µM
  CC50: 12 µM
  activity at 10 µM: -21%
MDA-MB-435
  GI50: 0.73 µM
  IC (TGI): 4.38 µM
  activity at 10 µM: -10.3%
  CC50: 12 µM
UACC-257
  GI50: 2.04 µM
  IC (TGI): 5.28 µM
  activity at 10 µM: -39.7%
UACC-257; UACC-257, 5 log dose, 48 h, read-out: LC50 (the source's name)
  CC50: 11.6 µM
IGROV1
  GI50: 0.9 µM
  IC (TGI): 6.3 µM
  CC50: > 25 µM
  activity at 10 µM: 1.51%
OVCAR-3
  GI50: 1.64 µM
  IC (TGI): 10 µM
  CC50: > 25 µM
  activity at 10 µM: -53.6%
CAKI-1; Homo sapiens
  activity at 10 µM: 9.01%
DU-145
  GI50: 2.4 µM
  IC (TGI): 6.52 µM
  CC50: 17.2 µM
  activity at 10 µM: 8.3%
MCF7
  GI50: 0.93 µM
  IC (TGI): 6.4 µM
  activity at 10 µM: -1.96%
  CC50: 24.9 µM
MDA-MB 231/ATCC
  GI50: 1.32 µM
  IC (TGI): 6.32 µM
  activity at 10 µM: -27.1%
  CC50: 19.7 µM
BT-549
  GI50: 1.9 µM
  IC (TGI): 7.42 µM
  activity at 10 µM: -12.2%
  CC50: 24.8 µM
T-47D
  GI50: 0.64 µM
  IC (TGI): 6.56 µM
  activity at 10 µM: -8.49%
  CC50: > 25 µM
VEGFR-2 tyrosine kinase
  inhibition at 10 µM: 24%

## Cc1nnc(Nc2ccc(NC(=O)Nc3ccc(Cl)cc3)cc2)c2ccccc12 [Compound 6e, 1–(4-Chlorophenyl)-3–(4-(4-methylphthalazin-1-ylamino)phenyl)urea]
HL-60(TB)
  GI50: 2.03 µM
  IC (TGI): 4.18 µM
  CC50: 8.64 µM
  activity at 10 µM: -34.8%
K-562
  GI50: 2.2 µM
  IC (TGI): 4.67 µM
  CC50: 9.92 µM
  activity at 10 µM: -16.7%
MOLT-4
  GI50: 2.36 µM
  IC (TGI): 6 µM
  CC50: > 100 µM
  activity at 10 µM: 9.76%
NCI-H522
  GI50: 1.84 µM
  IC (TGI): 3.88 µM
  CC50: 8.21 µM
  activity at 10 µM: 30.3%
HT29
  GI50: 1.78 µM
  IC (TGI): 3.67 µM
  CC50: 7.56 µM
  activity at 10 µM: 2.24%
MDA-MB-435
  GI50: 1.73 µM
  IC (TGI): 3.43 µM
  activity at 10 µM: -40%
  CC50: 6.81 µM
UACC-257
  GI50: 2.39 µM
  IC (TGI): 5.3 µM
  activity at 10 µM: 73.8%
IGROV1
  GI50: 3.98 µM
  IC (TGI): 19.5 µM
  CC50: > 100 µM
  activity at 10 µM: 62%
OVCAR-3
  GI50: 1.87 µM
  IC (TGI): 3.99 µM
  CC50: 8.47 µM
  activity at 10 µM: 44.4%
CAKI-1; CAKI-1, 5 log dose
  TGI: 12.8 µM
CAKI-1; Homo sapiens, CAKI-1, 5 log dose
  GI50: 3.49 µM
CAKI-1; Homo sapiens, CAKI-1, 5 log dose, 48 h, read-out: LC50 (the source's name)
  CC50: 43.6 µM
CAKI-1; Homo sapiens
  activity at 10 µM: 33.9%
DU-145
  GI50: 4.77 µM
  IC (TGI): 19.5 µM
  CC50: 66.9 µM
  activity at 10 µM: 57.8%
MCF7
  GI50: 2.21 µM
  IC (TGI): 10.9 µM
  activity at 10 µM: 24.9%
  CC50: 68.7 µM
MDA-MB 231/ATCC
  GI50: 2.38 µM
  IC (TGI): 5.94 µM
  activity at 10 µM: 23.1%
  CC50: 33.9 µM
BT-549
  GI50: 2.21 µM
  IC (TGI): 5.55 µM
  activity at 10 µM: 11.4%
  CC50: 66 µM
T-47D
  GI50: 2.06 µM
  IC (TGI): 5.08 µM
  activity at 10 µM: 8.43%
  CC50: 56.4 µM
VEGFR-2 tyrosine kinase
  inhibition at 10 µM: 19%
